# The supplement of paper PMC10307832
# Columns and labels:
# Assay in all cases: relative viability (nuclei count vs DMSO), 5 days (fraction); higher = more cells survive
# [1] = compound: CC1=CN=C(N=C1C2=CNC(=C2)C(=O)N[C@H](CO)C3=CC(=CC=C3)Cl)NC4=C(C=C(C=C4)F)Cl [VX-11e] + CC(C)C[C@H](NC(=O)[C@H](Cc1ccccc1)NC(=O)c1cnccn1)B(O)O [Bortezomib] (partner 0.002 µM)
# In short: (§1)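 Dosing by pin tool came one day after lung cancer cell lines were seeded in 1536-well plates, using either one drug or a fixed anchor-drug dose plus five library-drug doses (not always all listed) in √10 steps. After 5 days, nuclei were counted on 4× images. Relative viability is treated-well nuclei count divided by vehicle-well nuclei count, and values are medians of duplicate plates.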
# [2] = compound: CC1=CN=C(N=C1C2=CNC(=C2)C(=O)N[C@H](CO)C3=CC(=CC=C3)Cl)NC4=C(C=C(C=C4)F)Cl [VX-11e] + Cc1nc(Nc2ncc(C(=O)Nc3c(C)cccc3Cl)s2)cc(N2CCN(CCO)CC2)n1 [Dasatinib] (partner 0.075 µM)
# In short: as §1
# [3] = compound: CC1=CN=C(N=C1C2=CNC(=C2)C(=O)N[C@H](CO)C3=CC(=CC=C3)Cl)NC4=C(C=C(C=C4)F)Cl [VX-11e] + CC1(C)CCC(c2ccc(Cl)cc2)=C(CN2CCN(c3ccc(C(=O)NS(=O)(=O)c4ccc(N[C@H](CCN5CCOCC5)CSc5ccccc5)c(S(=O)(=O)C(F)(F)F)c4)cc3)CC2)C1 [Navitoclax] (partner 0.5 µM)
# In short: as §1
# [4] = compound: CC1=CN=C(N=C1C2=CNC(=C2)C(=O)N[C@H](CO)C3=CC(=CC=C3)Cl)NC4=C(C=C(C=C4)F)Cl [VX-11e] + CCNC(=O)c1noc(-c2cc(C(C)C)c(O)cc2O)c1-c1ccc(CN2CCOCC2)cc1 [Luminespib] (partner 0.01 µM)
# In short: as §1
Cell Line,relative viability ([1]; first compound 0.04 µM),relative viability ([1]; first compound 0.1265 µM),relative viability ([1]; first compound 0.4 µM),relative viability ([1]; first compound 1.265 µM),relative viability ([1]; first compound 4 µM),relative viability ([2]; first compound 0.04 µM),relative viability ([2]; first compound 0.1265 µM),relative viability ([2]; first compound 0.4 µM),relative viability ([2]; first compound 1.265 µM),relative viability ([2]; first compound 4 µM),relative viability ([3]; first compound 0.04 µM),relative viability ([3]; first compound 0.1265 µM),relative viability ([3]; first compound 0.4 µM),relative viability ([3]; first compound 1.265 µM),relative viability ([3]; first compound 4 µM),relative viability ([4]; first compound 0.04 µM),relative viability ([4]; first compound 0.1265 µM),relative viability ([4]; first compound 0.4 µM),relative viability ([4]; first compound 1.265 µM),relative viability ([4]; first compound 4 µM)
HCC-827,1.11,1.1,1.09,1.2,1.02,0.297,0.292,0.257,0.406,0.246,1.07,1.02,0.992,1.24,0.919,0.605,0.422,0.616,0.826,0.477
HOP-62,0.688,0.963,0.553,0.214,0.515,0.685,0.652,0.663,0.457,0.242,0.992,0.891,1.02,0.46,0.582,1.01,0.843,0.946,0.687,0.406
LC-2-ad,1.13,0.962,0.894,0.403,0.841,0.48,0.402,0.326,0.289,0.324,0.463,0.375,0.362,0.372,0.248,1.18,0.947,0.633,0.883,0.815
LCLC-97TM1,0.591,0.675,0.943,0.339,0.107,1,0.728,0.793,0.547,0.301,0.492,0.463,–,0.408,0.157,0.781,0.693,0.615,0.393,0.263
LOU-NH91,0.494,0.502,–,0.486,0.457,0.534,0.514,0.372,0.489,0.471,0.751,0.692,–,0.593,0.581,0.394,0.396,0.283,0.341,0.312
LU99A,0.965,0.984,0.769,0.284,0.239,0.505,0.562,0.261,0.252,0.199,0.82,0.925,0.651,0.335,0.161,0.3,0.249,0.209,0.336,0.172
LXF-289,1.07,0.96,0.764,0.734,0.665,0.29,0.199,0.249,0.336,0.172,0.99,0.914,0.965,0.895,0.607,0.641,0.592,0.659,0.656,0.407
NCI-H23,0.911,0.81,0.25,0.935,0.367,0.552,0.711,–,0.225,0.221,1,0.859,0.467,0.459,0.243,0.237,0.225,0.237,0.182,0.185
NCI-H322M,1.08,–,1.24,1.09,0.987,0.224,0.208,0.27,0.252,0.225,1.24,–,1.23,1.06,0.672,0.846,0.687,0.303,0.658,0.606
NCI-H441,0.54,0.436,–,0.963,0.432,0.685,0.814,–,0.502,0.318,0.668,0.469,–,0.905,0.556,0.345,0.31,–,0.459,0.323
NCI-H460,1.15,0.986,0.91,0.648,0.102,0.476,0.515,0.23,0.266,0.0901,1.37,1.16,1.13,0.542,0.0727,0.0317,0.0379,0.0305,0.0413,0.0238
NCI-H520,0.621,0.49,0.636,0.486,0.474,0.175,0.188,0.199,0.338,0.293,0.963,1.04,1,1.38,0.992,0.205,0.183,0.19,0.272,0.207
NCI-H596,0.953,1,0.989,0.645,0.715,0.542,0.516,0.466,0.425,0.419,1.12,0.876,0.895,0.951,0.586,0.898,0.982,0.699,0.755,0.765
NCI-H647,0.892,0.964,0.584,0.491,0.477,0.23,0.215,0.0848,0.123,0.0992,1.08,1.09,0.904,0.663,0.522,0.248,0.329,0.118,0.24,0.111
NCI-H727,0.686,0.68,0.519,0.513,0.29,0.355,0.279,0.337,0.415,0.258,0.395,0.332,0.283,0.167,0.115,0.293,0.294,0.291,0.312,0.371
NCI-H838,0.985,0.703,0.608,0.527,0.515,0.255,0.326,0.222,0.247,0.267,1.17,1.1,1.05,1.1,0.861,0.413,0.273,0.207,0.347,0.264

Cell Line,relative viability ([1]; first compound 0.04 µM),relative viability ([1]; first compound 0.1265 µM),relative viability ([1]; first compound 0.4 µM),relative viability ([1]; first compound 1.265 µM),relative viability ([1]; first compound 4 µM),relative viability ([2]; first compound 0.04 µM),relative viability ([2]; first compound 0.1265 µM),relative viability ([2]; first compound 0.4 µM),relative viability ([2]; first compound 1.265 µM),relative viability ([2]; first compound 4 µM),relative viability ([3]; first compound 0.04 µM),relative viability ([3]; first compound 0.1265 µM),relative viability ([3]; first compound 0.4 µM),relative viability ([3]; first compound 1.265 µM),relative viability ([3]; first compound 4 µM),relative viability ([4]; first compound 0.04 µM),relative viability ([4]; first compound 0.1265 µM),relative viability ([4]; first compound 0.4 µM),relative viability ([4]; first compound 1.265 µM),relative viability ([4]; first compound 4 µM)
NCI-H1355,1.01,1.17,0.614,1.11,0.763,0.523,0.669,0.334,0.43,0.321,0.92,0.891,0.945,0.695,0.333,0.681,0.683,0.552,0.638,0.47
NCI-H1437,0.597,0.316,0.306,0.312,0.202,0.292,0.329,0.161,0.218,0.16,1.11,1.05,1.07,0.815,0.52,1.19,1.09,0.996,1.17,0.736
NCI-H1650,0.192,0.198,0.235,0.199,0.195,0.304,0.385,–,0.312,0.187,1.21,1.07,1.08,0.856,0.374,0.195,0.185,–,0.192,0.186
NCI-H1651,0.946,0.879,0.921,0.922,0.871,0.43,0.378,0.368,0.328,0.323,1.06,1.1,0.968,0.893,0.939,0.977,0.847,0.784,0.796,0.672
NCI-H1666,0.877,0.862,0.627,0.678,0.505,0.855,0.87,0.69,0.688,0.477,0.987,1.1,0.848,0.51,0.368,1.02,0.92,0.941,0.829,0.642
NCI-H1734,0.965,0.826,0.726,0.513,0.365,0.418,0.396,0.536,0.415,0.256,0.787,0.796,0.685,0.652,0.245,0.203,0.21,0.269,0.205,0.163
NCI-H1755,0.965,0.931,0.884,0.923,0.608,0.444,0.392,0.413,0.398,0.298,1.06,0.956,0.972,0.956,0.558,0.3,0.42,0.479,0.466,0.324
NCI-H1792,1.01,0.912,0.94,0.876,0.686,0.894,0.679,0.572,0.729,0.326,0.614,0.639,0.672,0.646,0.588,0.419,0.351,0.216,0.417,0.225
NCI-H1915,1.02,0.923,1.03,0.939,0.757,0.288,0.291,0.25,0.267,0.217,0.826,0.761,0.787,0.682,0.546,0.821,0.737,0.851,0.773,0.59
NCI-H1975,0.475,0.372,0.301,0.281,0.178,0.373,0.29,0.195,0.254,0.171,1.03,1.09,1.13,1.06,0.612,0.232,0.199,0.156,0.283,0.186
NCI-H1993,–,1.04,–,0.742,0.765,0.442,0.54,0.523,1.46,0.504,–,1.03,–,0.804,0.612,1.12,0.918,0.484,1.02,0.663
NCI-H2009,1.08,0.944,0.797,0.254,0.201,0.307,0.286,0.242,0.169,0.122,1.17,1.14,1.2,0.938,0.289,1.07,1.03,1.03,1.08,0.349
NCI-H2023,0.993,1.03,0.098,0.394,0.418,0.647,0.508,0.502,0.439,0.234,1.02,0.879,0.966,1,0.405,0.683,0.791,0.701,0.6,0.361
NCI-H2085,1.04,0.979,1.03,0.898,0.825,0.296,0.241,0.217,0.188,0.193,1.17,1.02,1.1,0.919,0.719,0.378,0.433,0.396,0.323,0.276
NCI-H2087,0.863,0.639,0.582,0.921,0.287,0.943,0.73,–,0.301,0.202,0.983,1,0.999,0.8,0.257,0.188,0.188,–,0.154,0.152
NCI-H2126,–,1.06,1.01,1.14,1.02,0.52,0.635,–,0.597,0.401,–,0.861,0.877,0.785,0.638,0.824,0.877,–,0.964,0.737
